Reference: the supplement of paper PMC10307832

Tests used:
Experiment in all cases: relative viability (nuclei count vs DMSO), 5 days (fraction); higher = more cells survive
RO-3306 + Vorinostat = compound: C1=CC2=C(C=CC(=C2)C=C3C(=O)NC(=NCC4=CC=CS4)S3)N=C1 [RO-3306] + O=C(CCCCCCC(=O)Nc1ccccc1)NO [Vorinostat] (partner 1 µM)
In short: (§1)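 Lung cancer cell lines in 1536-well plates were dosed by pin tool the day after seeding, either with one drug alone or with a fixed anchor-drug dose plus five library-drug doses (not always all listed) in √10 steps. After 5 days, cells were fixed and their nuclei stained in one step (final 0.05% Triton X-100, 1% formaldehyde, 1 ug/ml Hoechst), then counted on 4× images. Relative viability is the nuclei count in treated wells divided by that in vehicle wells. Values are medians of duplicate plates.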

RO-3306 + Phenformin = compound: C1=CC2=C(C=CC(=C2)C=C3C(=O)NC(=NCC4=CC=CS4)S3)N=C1 [RO-3306] + N=C(N)NC(=N)NCCc1ccccc1 [Phenformin] (partner 250 µM)
In short: as §1

RO-3306 + Crizotinib = compound: C1=CC2=C(C=CC(=C2)C=C3C(=O)NC(=NCC4=CC=CS4)S3)N=C1 [RO-3306] + C[C@@H](Oc1cc(-c2cnn(C3CCNCC3)c2)cnc1N)c1c(Cl)ccc(F)c1Cl [Crizotinib] (partner 1 µM)
In short: as §1

RO-3306 + AZD7762 = compound: C1=CC2=C(C=CC(=C2)C=C3C(=O)NC(=NCC4=CC=CS4)S3)N=C1 [RO-3306] + NC(=O)Nc1cc(-c2cccc(F)c2)sc1C(=O)N[C@H]1CCCNC1 [AZD7762] (partner 0.2 µM)
In short: as §1

Cell Line	relative viability (RO-3306 + Vorinostat; first compound 0.01 µM)	relative viability (RO-3306 + Vorinostat; first compound 0.03162 µM)	relative viability (RO-3306 + Vorinostat; first compound 0.1 µM)	relative viability (RO-3306 + Vorinostat; first compound 0.3162 µM)	relative viability (RO-3306 + Vorinostat; first compound 1 µM)	relative viability (RO-3306 + Phenformin; first compound 0.01 µM)	relative viability (RO-3306 + Phenformin; first compound 0.03162 µM)	relative viability (RO-3306 + Phenformin; first compound 0.1 µM)	relative viability (RO-3306 + Phenformin; first compound 0.3162 µM)	relative viability (RO-3306 + Phenformin; first compound 1 µM)	relative viability (RO-3306 + Crizotinib; first compound 0.01 µM)	relative viability (RO-3306 + Crizotinib; first compound 0.03162 µM)	relative viability (RO-3306 + Crizotinib; first compound 0.1 µM)	relative viability (RO-3306 + Crizotinib; first compound 0.3162 µM)	relative viability (RO-3306 + Crizotinib; first compound 1 µM)	relative viability (RO-3306 + AZD7762; first compound 0.01 µM)	relative viability (RO-3306 + AZD7762; first compound 0.03162 µM)	relative viability (RO-3306 + AZD7762; first compound 0.1 µM)	relative viability (RO-3306 + AZD7762; first compound 0.3162 µM)	relative viability (RO-3306 + AZD7762; first compound 1 µM)
LC-2-ad	0.773	0.635	0.78	0.695	0.626	0.538	0.476	0.492	0.614	0.562	0.404	0.416	0.397	0.425	0.368	0.86	0.842	0.826	0.823	0.647
LCLC-97TM1	0.804	0.546	0.694	0.789	1.1	0.395	0.442	0.45	0.455	0.472	–	0.379	0.313	0.338	0.31	0.258	–	0.197	0.31	0.26
LCLC-103H	0.903	0.663	0.796	0.812	0.766	0.36	0.27	0.298	0.342	0.328	1.1	1.01	1.01	1.05	0.951	0.732	0.695	0.795	0.819	0.725
LK-2	0.293	0.248	0.324	0.275	0.295	0.445	–	0.312	0.499	0.344	0.232	0.239	0.216	0.201	0.234	0.459	0.354	0.425	0.448	0.472
LOU-NH91	0.857	0.828	0.854	0.871	0.866	0.808	0.709	0.681	0.649	0.694	0.938	0.728	0.739	0.706	0.685	0.76	0.721	0.746	0.721	0.667
LU99A	0.648	0.626	0.461	0.432	0.388	0.973	0.698	0.769	0.869	0.79	0.644	0.556	0.576	0.579	0.568	0.394	0.325	0.483	0.319	0.338
LXF-289	0.789	0.807	0.695	0.749	0.744	0.52	0.507	0.506	0.543	0.428	0.846	0.817	0.808	0.726	0.76	1.08	0.993	1.17	0.973	1.22
NCI-H23	0.828	–	0.547	0.55	0.501	0.734	0.762	0.737	0.745	0.668	0.493	0.304	0.462	0.56	0.425	0.249	–	0.21	0.303	0.227
NCI-H322M	0.878	0.859	0.807	0.868	0.584	0.768	0.661	0.724	0.777	0.791	0.861	0.999	1.1	0.95	0.953	0.538	0.697	0.625	0.597	0.582
NCI-H358	0.821	0.603	0.596	0.638	0.524	0.363	0.265	0.282	0.289	0.239	0.612	0.618	0.439	0.446	0.375	0.486	0.493	0.49	0.52	0.578
NCI-H441	0.888	0.495	0.837	1.23	0.638	0.689	0.474	0.783	0.864	0.788	0.824	0.424	0.591	0.867	0.485	1.02	0.782	1.21	0.948	1.03
NCI-H460	1.19	0.517	0.677	0.976	0.448	0.635	0.365	0.496	0.555	0.544	0.958	–	1.02	0.9	0.436	0.797	0.675	0.682	0.737	0.785
NCI-H596	0.589	0.512	0.533	0.726	0.713	0.77	0.63	0.799	0.758	0.966	0.968	0.896	0.998	1.07	1.08	1.17	1.01	1.03	1.1	0.917
NCI-H647	0.708	0.512	0.371	0.6	0.473	0.682	0.304	0.449	0.582	0.392	1.42	0.869	1.02	1.06	1.15	0.519	0.339	0.325	0.515	0.31
NCI-H650	0.406	0.376	0.41	0.428	0.415	0.408	0.411	0.445	0.467	0.457	0.56	0.648	0.694	0.691	0.703	0.874	0.911	0.943	1.05	0.952
NCI-H727	1.08	1.25	1.02	1.3	1.06	0.535	–	0.502	0.458	0.576	1.33	0.781	0.837	1	0.964	0.488	0.681	0.558	0.567	0.739
NCI-H838	0.726	0.694	0.722	0.738	0.674	0.756	0.442	0.521	0.653	0.538	0.957	0.765	0.837	0.93	0.607	1.03	0.908	0.975	0.972	0.931

Cell Line	relative viability (RO-3306 + Vorinostat; first compound 0.01 µM)	relative viability (RO-3306 + Vorinostat; first compound 0.03162 µM)	relative viability (RO-3306 + Vorinostat; first compound 0.1 µM)	relative viability (RO-3306 + Vorinostat; first compound 0.3162 µM)	relative viability (RO-3306 + Vorinostat; first compound 1 µM)	relative viability (RO-3306 + Phenformin; first compound 0.01 µM)	relative viability (RO-3306 + Phenformin; first compound 0.03162 µM)	relative viability (RO-3306 + Phenformin; first compound 0.1 µM)	relative viability (RO-3306 + Phenformin; first compound 0.3162 µM)	relative viability (RO-3306 + Phenformin; first compound 1 µM)	relative viability (RO-3306 + Crizotinib; first compound 0.01 µM)	relative viability (RO-3306 + Crizotinib; first compound 0.03162 µM)	relative viability (RO-3306 + Crizotinib; first compound 0.1 µM)	relative viability (RO-3306 + Crizotinib; first compound 0.3162 µM)	relative viability (RO-3306 + Crizotinib; first compound 1 µM)	relative viability (RO-3306 + AZD7762; first compound 0.01 µM)	relative viability (RO-3306 + AZD7762; first compound 0.03162 µM)	relative viability (RO-3306 + AZD7762; first compound 0.1 µM)	relative viability (RO-3306 + AZD7762; first compound 0.3162 µM)	relative viability (RO-3306 + AZD7762; first compound 1 µM)
NCI-H1355	0.694	0.538	0.644	0.6	0.591	0.429	–	0.516	0.422	0.404	1.21	0.947	1.1	1.12	1.14	0.792	0.762	0.677	0.694	0.863
NCI-H1437	0.848	0.782	0.807	0.751	0.688	0.317	0.261	0.308	0.297	0.316	1.13	0.682	0.988	1.01	1.03	1.2	1.08	1.11	1.15	0.882
NCI-H1651	0.559	0.535	0.529	0.544	0.511	0.363	0.254	0.341	0.338	0.251	0.865	0.834	0.88	0.881	0.84	0.437	0.406	0.454	0.424	0.469
NCI-H1666	0.803	0.952	1.04	1.05	0.972	0.561	0.55	0.515	0.54	0.552	1.04	0.869	0.915	0.839	0.89	0.787	0.878	0.858	0.88	0.799
NCI-H1734	0.802	0.631	0.733	0.828	0.734	0.355	0.276	0.344	0.409	0.368	0.714	0.656	0.694	0.624	0.623	0.596	0.491	0.536	0.585	0.483
NCI-H1755	0.881	0.856	0.771	0.745	0.706	0.65	0.62	0.63	0.622	0.544	0.934	1.02	0.875	0.846	0.811	0.609	0.473	0.458	0.439	0.496
NCI-H1915	0.577	0.564	0.505	0.49	0.505	0.405	0.31	0.358	0.348	0.377	1.07	0.783	0.882	0.903	0.876	0.749	0.679	0.727	0.698	0.685
NCI-H1944	0.595	0.566	0.588	0.562	0.509	0.206	0.182	0.2	0.168	0.194	1.11	0.98	1.16	1.21	1.03	0.606	0.571	0.508	0.45	0.46
NCI-H1975	0.608	0.624	0.685	0.701	0.69	0.412	0.392	0.378	0.405	0.384	1.18	0.815	1.06	1.04	0.997	0.762	0.671	0.712	0.641	0.653
NCI-H1993	0.82	0.707	0.751	0.822	0.716	0.483	0.552	0.503	0.517	0.499	–	0.803	0.895	0.867	0.817	0.697	0.756	0.772	0.77	0.684
NCI-H2085	0.83	0.733	0.775	0.781	0.8	0.688	0.604	0.655	0.683	0.654	0.677	0.715	0.774	0.775	0.791	1.04	0.95	0.93	0.921	1.07
NCI-H2087	0.775	0.805	0.756	0.864	0.86	0.526	0.332	0.423	0.489	0.372	1	0.902	1.04	0.893	0.945	1.42	1.03	1.35	1.42	1.34
NCI-H2126	0.747	0.679	0.812	0.879	0.733	0.504	0.544	0.513	0.508	0.513	1.08	1.01	1.08	1.06	1.04	1.01	0.976	1.02	0.993	1.13
NCI-H2170	0.901	0.568	0.886	0.842	0.856	0.425	0.422	0.396	0.383	0.435	1.34	0.758	1.15	1.24	1.13	1.11	0.865	0.938	0.939	0.907
NCI-H2347	0.539	0.541	0.51	0.532	0.701	0.347	0.374	0.384	0.485	0.384	0.675	0.691	0.718	0.7	0.656	1.13	0.663	0.796	0.766	0.724
NCI-H2405	1.01	0.949	0.968	0.916	0.231	0.403	0.539	0.356	0.368	0.554	0.863	0.786	0.864	0.828	0.794	0.828	0.608	0.717	0.718	0.578
